# From PubChem BioAssay (NCI)
#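 These data come from cells grown in 96-well plates and exposed to compound for 48 hours at five concentrations. The concentration for 50% growth inhibition is given as GI50. TGI is the concentration that stops growth completely.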
# Columns and labels:
# Assay in all cases: DTP human tumour cell line panel, 48 h
# A549 NSCLC = test system: A549 NSCLC
# UACC-62 melanoma = test system: UACC-62 melanoma
# T-47D breast = test system: T-47D breast
# SN12C renal = test system: SN12C renal
# 786-0 renal = test system: 786-0 renal
# SNB-19 CNS = test system: SNB-19 CNS
# SK-MEL-2 melanoma = test system: SK-MEL-2 melanoma
# OVCAR-8 ovarian = test system: OVCAR-8 ovarian
# SF-295 CNS = test system: SF-295 CNS
# MCF7 breast = test system: MCF7 breast
# SK-MEL-28 melanoma = test system: SK-MEL-28 melanoma
# HCC-2998 colon = test system: HCC-2998 colon
# HOP-92 NSCLC = test system: HOP-92 NSCLC
# NCI-H23 lung = test system: NCI-H23 lung
# HCT-15 colon = test system: HCT-15 colon
# MALME-3M melanoma = test system: MALME-3M melanoma
# SF-268 CNS = test system: SF-268 CNS
# CAKI-1 renal = test system: CAKI-1 renal
# CCRF-CEM leukemia = test system: CCRF-CEM leukemia
# SK-MEL-5 melanoma = test system: SK-MEL-5 melanoma
# PC-3 prostate = test system: PC-3 prostate
# OVCAR-4 ovarian = test system: OVCAR-4 ovarian
# MDA-MB-435 = test system: MDA-MB-435
# SF-539 CNS = test system: SF-539 CNS
# HL-60(TB) leukemia = test system: HL-60(TB) leukemia
# MDA-MB-231 breast = test system: MDA-MB-231 breast
# SW-620 colon = test system: SW-620 colon
# NCI-H522 lung = test system: NCI-H522 lung
# OVCAR-5 ovarian = test system: OVCAR-5 ovarian
# DU-145 prostate = test system: DU-145 prostate
# HOP-62 NSCLC = test system: HOP-62 NSCLC
# U251 CNS = test system: U251 CNS
# K-562 leukemia = test system: K-562 leukemia
# RXF 393 renal = test system: RXF 393 renal
# NCI-H460 lung = test system: NCI-H460 lung
# COLO 205 colon = test system: COLO 205 colon
# OVCAR-3 ovarian = test system: OVCAR-3 ovarian
# LOX IMVI melanoma = test system: LOX IMVI melanoma
# BT-549 breast = test system: BT-549 breast
# MOLT-4 leukemia = test system: MOLT-4 leukemia
# EKVX NSCLC = test system: EKVX NSCLC
# SK-OV-3 ovarian = test system: SK-OV-3 ovarian
# TK-10 renal = test system: TK-10 renal
# NCI-H226 lung = test system: NCI-H226 lung
# RPMI-8226 leukemia = test system: RPMI-8226 leukemia
# HT29 colon = test system: HT29 colon
# UO-31 renal = test system: UO-31 renal
# UACC-257 melanoma = test system: UACC-257 melanoma
# NCI/ADR-RES ovarian = test system: NCI/ADR-RES ovarian
# SNB-75 CNS = test system: SNB-75 CNS
# HS 578T breast = test system: HS 578T breast
# M14 melanoma = test system: M14 melanoma
# SR leukemia = test system: SR leukemia
# KM12 colon = test system: KM12 colon
# IGROV1 ovarian = test system: IGROV1 ovarian
# ACHN renal = test system: ACHN renal
structure (smiles),measurement,setting,value
O=c1[nH]c2c3ccncc3cc(-c3cccc(Cl)c3)c2c2cnccc12,GI50,A549 NSCLC,> 100 µM
same,TGI,A549 NSCLC,> 100 µM
same,GI50,UACC-62 melanoma,44.3 µM
same,TGI,UACC-62 melanoma,> 100 µM
same,GI50,T-47D breast,> 100 µM
same,TGI,T-47D breast,> 100 µM
same,GI50,SN12C renal,84.2 µM
same,TGI,SN12C renal,> 100 µM
same,GI50,786-0 renal,18.8 µM
same,TGI,786-0 renal,79.5 µM
same,GI50,SNB-19 CNS,25.6 µM
same,TGI,SNB-19 CNS,> 100 µM
same,GI50,SK-MEL-2 melanoma,47.9 µM
same,TGI,SK-MEL-2 melanoma,> 100 µM
same,GI50,OVCAR-8 ovarian,11.7 µM
same,TGI,OVCAR-8 ovarian,> 100 µM
same,GI50,SF-295 CNS,34 µM
same,TGI,SF-295 CNS,> 100 µM
same,GI50,MCF7 breast,> 100 µM
same,TGI,MCF7 breast,> 100 µM
same,GI50,SK-MEL-28 melanoma,> 100 µM
same,TGI,SK-MEL-28 melanoma,> 100 µM
same,GI50,HCC-2998 colon,> 100 µM
same,TGI,HCC-2998 colon,> 100 µM
same,GI50,HOP-92 NSCLC,69.5 µM
same,TGI,HOP-92 NSCLC,> 100 µM
same,GI50,NCI-H23 lung,12.9 µM
same,TGI,NCI-H23 lung,> 100 µM
same,GI50,HCT-15 colon,> 100 µM
same,TGI,HCT-15 colon,> 100 µM
same,GI50,MALME-3M melanoma,> 100 µM
same,TGI,MALME-3M melanoma,> 100 µM
same,GI50,SF-268 CNS,20.8 µM
same,TGI,SF-268 CNS,> 100 µM
same,GI50,CAKI-1 renal,> 100 µM
same,TGI,CAKI-1 renal,> 100 µM
same,GI50,CCRF-CEM leukemia,> 100 µM
same,TGI,CCRF-CEM leukemia,> 100 µM
same,GI50,SK-MEL-5 melanoma,> 100 µM
same,TGI,SK-MEL-5 melanoma,> 100 µM
same,GI50,PC-3 prostate,> 100 µM
same,TGI,PC-3 prostate,> 100 µM
same,GI50,OVCAR-4 ovarian,> 100 µM
same,TGI,OVCAR-4 ovarian,> 100 µM
same,GI50,MDA-MB-435,> 100 µM
same,TGI,MDA-MB-435,> 100 µM
same,GI50,SF-539 CNS,19.6 µM
same,TGI,SF-539 CNS,> 100 µM
same,GI50,HL-60(TB) leukemia,> 100 µM
same,TGI,HL-60(TB) leukemia,> 100 µM
same,GI50,MDA-MB-231 breast,4.71 µM
same,TGI,MDA-MB-231 breast,> 100 µM
same,GI50,SW-620 colon,> 100 µM
same,TGI,SW-620 colon,> 100 µM
same,GI50,NCI-H522 lung,30.4 µM
same,TGI,NCI-H522 lung,> 100 µM
same,GI50,OVCAR-5 ovarian,> 100 µM
same,TGI,OVCAR-5 ovarian,> 100 µM
same,GI50,DU-145 prostate,> 100 µM
same,TGI,DU-145 prostate,> 100 µM
same,GI50,HOP-62 NSCLC,27.9 µM
same,TGI,HOP-62 NSCLC,91.5 µM
same,GI50,U251 CNS,4.52 µM
same,TGI,U251 CNS,> 100 µM
same,GI50,K-562 leukemia,> 100 µM
same,TGI,K-562 leukemia,> 100 µM
same,GI50,RXF 393 renal,0.737 µM
same,TGI,RXF 393 renal,52.3 µM
same,GI50,NCI-H460 lung,> 100 µM
same,TGI,NCI-H460 lung,> 100 µM
same,GI50,COLO 205 colon,> 100 µM
same,TGI,COLO 205 colon,> 100 µM
same,GI50,OVCAR-3 ovarian,3.7 µM
same,TGI,OVCAR-3 ovarian,> 100 µM
same,GI50,LOX IMVI melanoma,2.04 µM
same,TGI,LOX IMVI melanoma,> 100 µM
same,GI50,BT-549 breast,7.94 µM
same,TGI,BT-549 breast,> 100 µM
same,GI50,MOLT-4 leukemia,> 100 µM
same,TGI,MOLT-4 leukemia,> 100 µM
same,GI50,EKVX NSCLC,> 100 µM
same,TGI,EKVX NSCLC,> 100 µM
same,GI50,SK-OV-3 ovarian,24.7 µM
same,TGI,SK-OV-3 ovarian,> 100 µM
same,GI50,TK-10 renal,40.2 µM
same,TGI,TK-10 renal,> 100 µM
same,GI50,NCI-H226 lung,73.8 µM
same,TGI,NCI-H226 lung,> 100 µM
same,GI50,RPMI-8226 leukemia,> 100 µM
same,TGI,RPMI-8226 leukemia,> 100 µM
same,GI50,HT29 colon,> 100 µM
same,TGI,HT29 colon,> 100 µM
same,GI50,UO-31 renal,> 100 µM
same,TGI,UO-31 renal,> 100 µM
same,GI50,UACC-257 melanoma,> 100 µM
same,TGI,UACC-257 melanoma,> 100 µM
same,GI50,NCI/ADR-RES ovarian,39.9 µM
same,TGI,NCI/ADR-RES ovarian,> 100 µM
same,GI50,SNB-75 CNS,17.7 µM
same,TGI,SNB-75 CNS,89.7 µM
same,GI50,HS 578T breast,28.8 µM
same,TGI,HS 578T breast,> 100 µM
same,GI50,M14 melanoma,> 100 µM
same,TGI,M14 melanoma,> 100 µM
same,GI50,SR leukemia,0.442 µM
same,TGI,SR leukemia,> 100 µM
same,GI50,KM12 colon,> 100 µM
same,TGI,KM12 colon,> 100 µM
same,GI50,IGROV1 ovarian,72.2 µM
same,TGI,IGROV1 ovarian,> 100 µM
same,GI50,ACHN renal,1.91 µM
same,TGI,ACHN renal,> 100 µM
